Test [1] addresses T1, mPAO (Mus musculus, UniProt Q8C0L6).
T1 construct: the full length cDNA of mpao was released by Nde I and Hind III treatment, and ligated into Nde I and Hind III sites of pET29c; made in house; host or cells: E. coli BL21 GOLD (DE3), plasmid pET-MPAO (pET29c)
In words: Oxygraph assay of O2 consumption, progress-curve analysis. As to conditions: progress curves before and after catalase addition. Type of test: biochemical, murine. As for the experimental part:
Some assays (oxygraph assays) were carried out by directly monitoring O2 consumption in air-saturated buffer ([O2]=0.237 mM) or buffer saturated with pure O2 at 30° C. ([O2]=1.12 mM). The depletion of O2 was detected with a Yellow Springs Instruments, Inc. Model 53 Oxygen Monitor equipped with a Clark electrode. […] Following a published procedure (Goudar et al., Biochim. Biophys. Acta 1429:377-383 [1999]), the data were fitted to the integrated Mechaelis-Menton equation. The analyses were done using Maple VI (Windows 2000) software (Waterloo Maple, Inc.) running on a PC computer. […] Inhibition by the H2O2, formed as a product of polyamine oxidation by mPAO, was assessed by addition of 2 μL of a 30 mg/mL (30,000 units/mg) solution of catalase, after [O2] reached zero.
The catalase immediately converted each mole of H2O2 to 0.5 mol of O2 (since [O2]=1.12 mM for pure O2-saturated buffer, then [O2]=0.56 mM immediately after catalase addition). In the presence of catalase, O2 depletion should occur at 0.5× the rate as it does in the absence of catalase (unless H2O2 inhibition is operating). With catalase present, each molecule of O2 will be converted eventually to H2O (4-electron equivalents), rather than to H2O2 (2-electron equivalents).

In test [2] the target is T1, mPAO. The test is described as follows: Steady-state kinetic spectrophotometric assay of mPAO (H2O2 formation). Type of test: biochemical, murine. Conditions: for kcat′ / KS′: apparent value; for kcat′: air-saturated 50 mM KH2PO4/KOH buffer pH 7.6, [O2] 237 μM; for KS′: air-saturated buffer pH 7.6, [O2] 237 μM; for inhibitor of mPAO (oxidation of N^1-acetyl-Spm) / substrate for mPAO (oxidation by mPAO): in words; for kcat′/KS′: specificity constant, air-saturated buffer pH 7.6. As for the experimental part: In this example the methods used to examine mPAO steady state kinetics are described. Spectrophotometric assays were done at 30° C. in a potassium phosphate buffer (e.g., 50 mM KH2PO4/KOH buffer, pH 7.6 saturated in air or in pure oxygen), using a published procedure which provides a continuous monitor of the H2O2 produced (Holt et al., Anal. Biochem. 244:384-392 [1997]). These assays were done in 1 mL cuvette with 0.8 mL of solution containing varying amounts of substrate, 1 mM vanillic acid, 0.5 mM 4-aminopyrine, 4 units of horseradish peroxidase, and 0.1-0.2 μg of mPAO. The reactions were monitored at 498 nm with a UVIKON 840 spectrophotometer (KONTRON Instruments) for the formation of the quinoneimine dye (ε498=4,650 M^−1cm^−1 at pH 7.6), the condensation product of vanillic acid and oxidized 4-aminopyrine. The latter is produced from 4-aminopyrine by the action of horseradish peroxidase that has been oxidized by H2O2 (Holt et al., supra [1997]). The assays were done at 25° C. by varying the concentration of the amine substrate, while the oxygen concentration in the assay solution was constant at the air-saturating level of 237 μM. The data were fit, by nonlinear regression to steady-state kinetic equations (McIntire et al., Biochem. J. 228:325-335 [1985]), which provided the values, and standard deviations thereof, for kcat′, KS′ and kcat′/KS′ (=Q, the specificity constant). [formula]
The dissociation constants, KD, for these and other amines were estimated in the following manner. It was assumed that the competition was competitive, since in the presence of the inhibitors, at a saturating N^1-acetyl-Spm concentration, the rate of the reaction was equal to the value of the true kcat. It was also assumed that the mechanism is of the ping-pong type. Thus, the applicable steady-state equation is (Segal, Enzyme Kinetics, John Wiley & Sons, New York, pp. 606-625 [1975]): [formula]
On the left, kcat and KS are the steady-state parameters for N^1-acetyl-Spm (S), and I and KI (=KD), represent the inhibitor and its inhibition constant, respectively. KIO and KO are the inhibition constant and Michaelis constant for O2, respectively. The equation can be converted to the expression on the right side when: [formula]
The expressions for kcat′ and KS′ (at the fixed [O2]=[…]) are the same as those when the inhibitor is absent. Since the values of kcat′ and KS″ were predetermined, inhibition assays were carried out where [S]≈KS″, which, in the absence of I, would give a rate, ν≈0.5×kcat″. In these assay, for each inhibitor, [I] was adjusted so the apparent rate was somewhat less then 0.5 kcat′. In this situation, after substitution and rearrangement, Equation 1 reduces to: [formula]
Since [I] and kcat′ are known, and ν is the measured rate in the presence of the inhibitor, the value of KI′ can be estimated. It is assumed that these apparent KI′ are good approximations of the true KI (=KD) values. […] The estimated KI′ values provided in Table 1, are the averages of these four values. If the reactions of the polyamine substrates and O2 with mPAO obeys a ping-pong type mechanism, the apparent values, kcat′/KS′, are equal to the true kcat/KS values.

The mark [3] stands for this setting: apparent, inhibition of N^1-acetyl-Spm oxidation, average of four inhibitor concentrations, read-out: KI′ = KD.

“Also recorded” adds a separate entry of the source. Like-named read-outs stand apart in the source and are kept apart here.

T1 sequence (Q8C0L6 whole entry E184K/L285S/R416L/R417S/Q419R/E451A/V490I/S491G/V497A): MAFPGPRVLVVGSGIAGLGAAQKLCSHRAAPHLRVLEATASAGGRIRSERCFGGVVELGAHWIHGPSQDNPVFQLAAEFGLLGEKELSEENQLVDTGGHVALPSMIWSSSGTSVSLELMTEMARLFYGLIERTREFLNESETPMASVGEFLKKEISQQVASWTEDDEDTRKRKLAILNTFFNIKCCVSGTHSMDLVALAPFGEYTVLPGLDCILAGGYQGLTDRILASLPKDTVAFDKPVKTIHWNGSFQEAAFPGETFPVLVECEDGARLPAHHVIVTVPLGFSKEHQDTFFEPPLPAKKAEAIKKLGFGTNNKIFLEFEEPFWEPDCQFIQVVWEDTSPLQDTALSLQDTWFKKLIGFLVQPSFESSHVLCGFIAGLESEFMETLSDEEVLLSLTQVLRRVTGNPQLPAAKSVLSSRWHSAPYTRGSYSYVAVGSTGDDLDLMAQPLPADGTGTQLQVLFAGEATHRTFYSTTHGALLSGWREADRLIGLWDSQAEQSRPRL

As for `OO` [H2O2, hydrogen peroxide], the “inhibition of mPAO by product H2O2” value at mPAO [1] was “inhibition does not occur”.

On to `NCCCCNCCCN` [Spd, spermidine], for which, at mPAO [2], the “kcat′” value stood at 0 s⁻¹, the “KS′” value turned out to be 0 µM, the “inhibitor of mPAO (oxidation of N^1-acetyl-Spm)” value (shortened to “inhibitor of mPAO”) was “inhibitors” and the “substrate for mPAO (oxidation by mPAO)” value is “poor substrates for mPAO”. The “kcat′/KS′” value at mPAO [2] came out at 0 M⁻¹ s⁻¹. The Ki on mPAO [2] (setting [3]) was found to be 190 µM.

As for `NCCCCN` [Put, putrescine], on mPAO [2], the “kcat′” value is 0 s⁻¹, the “KS′” value was 0 µM, the “inhibitor of mPAO” value is reported as “inhibitors” and the “kcat′/KS′” value came to 0 M⁻¹ s⁻¹. Moreover, the Ki at mPAO [2] (setting [3]) came to 1000 µM.

For the compound `NCCCNCCCCNCCCN` [Spm, spermine], on mPAO [2], the “KS′” value was determined as 716 ± 33 µM, the “inhibitor of mPAO” value is “inhibitors” and the “substrate for mPAO (oxidation by mPAO)” value is reported as “poor mPAO substrate; also recorded: poor substrates for mPAO”. In addition, the Ki on mPAO [2] (setting [3]) was determined as 750 µM.

On to `N=C(N)NCCCCCCCCCCNC(=N)N` [synthalin, 1,10-bisguanidinodecane], for which, at mPAO [2], the Ki turned out to be 0.05 µM, the “kcat′” value was found to be 0 s⁻¹, the “KS′” value was found to be 0 µM and the “inhibitor of mPAO” value is “extremely potent inhibitor of mPAO”. The “kcat′/KS′” value at mPAO [2] was 0 M⁻¹ s⁻¹.

On to `CC(=O)NCCCCNCCCN` [N^8-acetyl-Spd], for which, on mPAO [2], the “kcat′” value was found to be 0 s⁻¹, the “KS′” value stood at 0 µM, the “substrate for mPAO (oxidation by mPAO)” value is given as “not oxidized by mPAO” and the “kcat′/KS′” value amounted to 0 M⁻¹ s⁻¹. Further, the Ki on mPAO [2] (setting [3]) amounted to 70 µM.

As for `CCNCCCNCCCCNCCCNCC` [N^1,N^12-diethyl-Spm, N^1,N^12-bis[ethyl]spermine], on mPAO [2], the “kcat′” value was 0.415 ± 0.012 s⁻¹, the “KS′” value came out at 150 ± 10 µM, the “substrate for mPAO (oxidation by mPAO)” value is reported as “very good substrates” and the “kcat′/KS′” value is listed as “(2.77 ± 0.13) × 10^3 M^−1sec^−1”.

For the compound `NCc1ccccc1` [benzylamine], at mPAO [2], the “kcat′” value is 0 s⁻¹, the “KS′” value was found to be 0 µM, the “inhibitor of mPAO” value is recorded as “not” and the “kcat′/KS′” value was 0 M⁻¹ s⁻¹. For the same compound, on mPAO [2] (apparent, inhibition of N^1-acetyl-Spm oxidation, average of four inhibitor concentrations), the “KI′ = KD” value is “∞ (infinity)”.

On to `NCCCCCCCCCCNCCCN` [N-(3-aminopropyl) 1,10 decanediamine, N-(3-Aminopropyl)-1,10-diaminodecane], for which, at mPAO [2], the “kcat′” value is 0 s⁻¹, the “inhibitor of mPAO” value is given as “good inhibitor of mPAO” and the “kcat′/KS′” value was 0 M⁻¹ s⁻¹. Moreover, on mPAO [2] (setting [3]), the Ki is 35 µM. The “substrate for mPAO (oxidation by mPAO)” value on mPAO [2] (listed as N-(3-Aminopropyl)-1,10-diaminodecane) was “not oxidized by mPAO”. The “substrate for mPAO (oxidation by mPAO)” value at mPAO [2] (listed as N-(3-aminopropyl)-1,10-diaminodecane) is “not to be a PAO substrate”.

`CCNCCCNCCCNCCCNCC` [N^1,N^11-diethyl-nor-Spm, N^1,N^11-bis[ethyl]norspermine]: at mPAO [2], the “kcat′” value worked out at 1.93 ± 0.03 s⁻¹, the “KS′” value is 157 ± 7 µM, the “substrate for mPAO (oxidation by mPAO)” value is recorded as “very good substrates” and the “kcat′/KS′” value is reported as “(1.27 ± 0.03) × 10^4 M^−1sec^−1”.

The values above are taken from patent publication US20050143472A1, “Novel treatment for pathologies associated with oxidative damage” (priority 2002, published 2005).
